# Assay results published in patent US20250382296A1, “NITROGEN-CONTAINING FUSED THREE RING PRMT5 INHIBITOR, AND PREPARATION METHOD THEREFOR AND PHARMACEUTICAL USE THEREOF” (Abbisko Therapeutics Co., Ltd., priority 2022, published 2025).
# pIC50: −log10 of the molar value.
# Assays:
# [1] = test system: HCT 116 wild-type MTAP cells; assay: Inhibition of proliferation of HCT116 wild-type MTAP cells (CellTiter-Glo, 6 days); format: cell-based; conditions: Homo sapiens, HCT-116, 144 h
# Method: (§1) 1. HCT 116 MTAP-knockout cells and HCT 116 wild-type MTAP cells were plated in 96-well flat-bottom plates and cultured overnight at 37° C. and […] in McCoy's 5A medium containing 10% fetal bovine serum+1% penicillin-streptomycin.
# (§2) 2. The next day, compounds were each dissolved in DMSO, diluted successively with DMSO and medium and then transferred to cell plates; the final concentration of each compound was 10 μM, 4-fold dilution was performed to obtain 9 concentration points, and a DMSO control was provided.
# (§3) 3. Cells not treated with compound were subjected to CellTiter-Glo Luminescent Cell Viability Assay (Promega) to detect the cell viability, and reference was made to the kit instructions for the operation; the plates were then placed on an EnVision Multilabel Reader to detect luminescence signals.
# (§4) 4. Meanwhile, the cell plates containing cells treated with compounds were cultured continuously at 37° C. and […] CO2 for 6 days.
# (§5) 5. Then, the cell viability was also detected by CellTiter-Glo.
# (§6) 6. Finally, dose response curves were plotted using the four parameter dose response curve module of GraphPad Prism v 9.2.0 software and proliferation inhibition IC50 (unit: nM) was calculated.
# [2] = test system: HCT 116 MTAP-knockout cells; assay: Inhibition of proliferation of HCT116 MTAP-knockout cells (CellTiter-Glo, 6 days); format: cell-based, human; conditions: for pIC50: Homo sapiens, HCT-116, 144 h, proliferation inhibition, HCT116 MTAP-knockout, 6 days, CellTiter-Glo; for Selectivity: IC50 HCT116 wild-type cells / IC50 HCT116 MTAP-knockout cells
# Method: as §1, §2, §3, §4, §5, §6
pIC50 [1],pIC50 [2],SMILES,Selectivity [2]
< 5.00,6.30,"C[C@@H]1CCN(C(=O)c2ccc3nc(N)c4cncn4c3c2)[C@@H](c2ccc3scnc3c2)C1 [Example 225, (4-aminoimidazo[1,5-a]quinoxalin-8-yl)((2R,4R)-2-(benzo[d]thiazol-5-yl)-4-methylpiperidin-1-yl)methanone]",>20
6.03,7.80,"Cc1ncc2c(N)nc3ccc(C(=O)N(c4cnn(C)c4)[C@@H]4COc5cc(C(F)(F)F)ccc54)cc3n12 [Example 229, (S)-4-amino-1-methyl-N-(1-methyl-1H-pyrazol-4-yl)-N-(6-(trifluoromethyl)-2,3-dihydrobenzofuran-3-yl)imidazo[1,5-a]quinoxaline-8-carboxamide]",58.4
–,5.65,"CN(Cc1ccc(C(F)(F)F)cn1)C(=O)c1cc2c(cc1F)nc(N)c1cccn12 [Example 232, 4-amino-7-fluoro-N-methyl-N-((5-(trifluoromethyl)pyridin-2-yl)methyl)pyrrolo[1,2-a]quinoxaline-8-carboxamide]",–
6.50,8.10,"Nc1nc2cc(F)c(C(=O)N(Cc3ccc(C(F)(F)F)nn3)CC3CC3)cc2n2cncc12 [Example 215, 4-amino-N-(cyclopropylmethyl)-7-fluoro-N-((6-(trifluoromethyl)pyridazin-3-yl)methyl)imidazo[1,5-a]quinoxaline-8-carboxamide]",39.3
< 5.00,6.69,"Nc1nc2ccc(C(=O)N(Cc3ccc(C(F)(F)F)cn3)CC(F)(F)F)cc2n2cncc12 [Example 148, 4-amino-N-(2,2,2-trifluoroethyl)-N-((5-(trifluoromethyl)pyridin-2-yl)methyl)imidazo[1,5-a]quinoxaline-8-carboxamide]",>49.5
5.26,6.81,"Nc1nc2ccc(C(=O)N(CC3CC3)C3CCc4cc(C(F)(F)F)ccc43)cc2n2cncc12 (stereo not drawn) [Example 22, 4-amino-N-(cyclopropylmethyl)-N-(5-(trifluoromethyl)-2,3-dihydro-1H-inden-1-yl)imidazo[1,5-a]quinoxaline-8-carboxamide]",35.6
6.78,8.10,"C[C@H](c1ncccn1)N(Cc1ccc(C(F)(F)F)cn1)C(=O)c1ccc2nc(N)c3cncn3c2c1 [Example 3, (R)-4-amino-N-(1-(pyrimidin-2-yl)ethyl)-N-((5-(trifluoromethyl)pyridin-2-yl)methyl)imidazo[1,5-a]quinoxaline-8-carboxamide]",20.8
6.15,8.10,"Cc1cc2nc(N)c3cncn3c2cc1C(=O)N(Cc1ccc(C(F)(F)F)cn1)CC1CC1 [Example 164, 4-amino-N-(cyclopropylmethyl)-7-methyl-N-((5-(trifluoromethyl)pyridin-2-yl)methyl)imidazo[1,5-a]quinoxaline-8-carboxamide]",88.3
6.68,8.30,"Cc1ncc2c(N)nc3cc(F)c(C(=O)N(c4cnn(C)c4)[C@@H]4COc5cc(C(F)(F)F)ccc54)cc3n12 [Example 2, (S)-4-amino-7-fluoro-1-methyl-N-(1-methyl-1H-pyrazol-4-yl)-N-(6-(trifluoromethyl)-2,3-dihydrobenzofuran-3-yl)imidazo[1,5-a]quinoxaline-8-carboxamide]",41.4
–,6.62,"CN(C(=O)c1ccc2nc(N)c3cncn3c2c1)C1COc2nc(C(F)(F)F)ccc21 (stereo not drawn) [Example 204, 4-amino-N-methyl-N-(6-(trifluoromethyl)-2,3-dihydrofuro[2,3-b]pyridin-3-yl)imidazo[1,5-a]quinoxaline-8-carboxamide]",–
5.46,7.92,"C[C@H]1CC[C@H](c2ccc3scnc3c2)N(C(=O)c2ccc3nc(N)c4cncn4c3c2)C1 [Example 227, (4-aminoimidazo[1,5-a]quinoxalin-8-yl)((2R,5S)-2-(benzo[d]thiazol-5-yl)-5-methylpiperidin-1-yl)methanone]",283
6.25,7.77,"Cn1cc(N(C(=O)c2cc3c(cc2F)nc(N)c2cccn23)[C@@H]2COc3cc(C(F)(F)F)ccc32)cn1 [Example 233, (S)-4-amino-7-fluoro-N-(1-methyl-1H-pyrazol-4-yl)-N-(6-(trifluoromethyl)-2,3-dihydrobenzofuran-3-yl)pyrrolo[1,2-a]quinoxaline-8-carboxamide]",33.2
–,5.74,"Nc1nc2ccc(C(=O)N(CC3CC3)[C@H]3CCc4nc(C(F)(F)F)ccc43)cc2n2cncc12 [Example 34b, (S)-4-amino-N-(cyclopropylmethyl)-N-(2-(trifluoromethyl)-6,7-dihydro-5H-cyclopenta[b]pyridin-5-yl)imidazo[1,5-a]quinoxaline-8-carboxamide]",–
–,5.51,"Nc1nc2ccc(C(=O)N(CC3CC3)[C@H]3COc4nc(C(F)(F)F)ccc43)cc2n2cncc12 [Example 181b, (R)-4-amino-N-(cyclopropylmethyl)-N-(6-(trifluoromethyl)-2,3-dihydrofuro[2,3-b]pyridin-3-yl)imidazo[1,5-a]quinoxaline-8-carboxamide]",–
–,7.17,"Nc1nc2ccc(C(=O)N(Cc3ccc(OC(F)(F)F)cn3)CC3CC3)cc2n2cncc12 [Example 158, 4-amino-N-(cyclopropylmethyl)-N-((5-(trifluoromethoxy)pyridin-2-yl)methyl)imidazo[1,5-a]quinoxaline-8-carboxamide]",–
–,6.81,"CC(c1ccc(C(F)(F)F)cn1)N(CC1CC1)C(=O)c1ccc2nc(N)c3cncn3c2c1 (stereo not drawn) [Example 203, 4-amino-N-(cyclopropylmethyl)-N-(1-(5-(trifluoromethyl)pyridin-2-yl)ethyl)imidazo[1,5-a]quinoxaline-8-carboxamide]",–
–,6.49,"COCCN(Cc1ccc(C(F)(F)F)cn1)C(=O)c1ccc2nc(N)c3cnc(C)n3c2c1 [Example 224, 4-amino-N-(2-methoxyethyl)-1-methyl-N-((5-(trifluoromethyl)pyridin-2-yl)methyl)imidazo[1,5-a]quinoxaline-8-carboxamide]",–
–,6.65,"Nc1nc2ccc(C(=O)N(CC3CC3)[C@@H]3CCc4nc(C(F)(F)F)ccc43)cc2n2cncc12 [Example 34a, (R)-4-amino-N-(cyclopropylmethyl)-N-(2-(trifluoromethyl)-6,7-dihydro-5H-cyclopenta[b]pyridin-5-yl)imidazo[1,5-a]quinoxaline-8-carboxamide]",–
–,6.50,"Cn1cc(N(C(=O)c2ccc3nc(N)c4cncn4c3c2)[C@@H]2COc3nc(C(F)(F)F)ccc32)cn1 [Example 205a, (S)-4-amino-N-(1-methyl-1H-pyrazol-4-yl)-N-(6-(trifluoromethyl)-2,3-dihydrofuro[2,3-b]pyridin-3-yl)imidazo[1,5-a]quinoxaline-8-carboxamide]",–

SMILES,pIC50 [1],pIC50 [2],Selectivity [2]
"C[Si](C)(C)CCOCn1cc(N(C(=O)c2ccc3nc(N)c4cncn4c3c2)[C@@H]2COc3cc(C(F)(F)F)ccc32)cn1 [Example 217, (S)-4-amino-N-(6-(trifluoromethyl)-2,3-dihydrobenzofuran-3-yl)-N-(1-((2-(trimethylsilyl)ethoxy)methyl)-1H-pyrazol-4-yl)imidazo[1,5-a]quinoxaline-8-carboxamide]",6.26,7.39,13.3
